Assay results: US8178570B2, “Tie-2 modulators and methods of use” (Exelixis, Inc., priority 2003, dated 2012)

What follows are compounds tested against Tie-2 (Homo sapiens, UniProt Q02763) (assay: Tie-2 tyrosine kinase activity: kinase-dependent ATP consumption (pEY substrate, luciferase/luciferin chemiluminescence) or 33P-ATP incorporation into substrate). Conditions: Tie-2 (human enzyme) inhibition, Table 2, class symbols A-D.
Format: biochemical
Method: One measure of inhibition is Ki. […] The Ki for a compound is determined from the IC50 based on three assumptions. First, only one compound molecule binds to the enzyme and there is no cooperativity. […] Third, the enzymatic rate of the enzyme-inhibitor complex is zero. The rate (i.e., compound concentration) data are fitted to the equation:
[formula] where V is the observed rate, Vmax, is the rate of the free enzyme, I0 is the inhibitor concentration, E0 is the enzyme concentration, and Kd is the dissociation constant of the enzyme-inhibitor complex.
Tyrosine kinase activity is determined by 1) measurement of kinase-dependent ATP consumption by in the presence of a generic substrate such as polyglutamine, tyrosine (pEY), by luciferase/luciferin-mediated chemiluminescence or; 2) incorporation of radioactive phosphate derived from ^33P-ATP into a generic substrate which has been absorbed onto the well surface of polystyrene microtiter plates. Phosphorylated substrate products are quantified by scintillation spectrometry.
Inhibition is indicated as IC50 with following key: A=IC50 less than 50 nM, B=IC50 greater than 50 nM, but less than or equal to 1000 nM, C=IC50 greater than 1000 nM, but less than 10,000 nM, and D=IC50 10,000 nM or greater. The abbreviation for human enzyme, Tie-2, is defined as tyrosine kinase with immunoglobulin and EGF repeats.

Tie-2, sequence (Q02763 23-1124): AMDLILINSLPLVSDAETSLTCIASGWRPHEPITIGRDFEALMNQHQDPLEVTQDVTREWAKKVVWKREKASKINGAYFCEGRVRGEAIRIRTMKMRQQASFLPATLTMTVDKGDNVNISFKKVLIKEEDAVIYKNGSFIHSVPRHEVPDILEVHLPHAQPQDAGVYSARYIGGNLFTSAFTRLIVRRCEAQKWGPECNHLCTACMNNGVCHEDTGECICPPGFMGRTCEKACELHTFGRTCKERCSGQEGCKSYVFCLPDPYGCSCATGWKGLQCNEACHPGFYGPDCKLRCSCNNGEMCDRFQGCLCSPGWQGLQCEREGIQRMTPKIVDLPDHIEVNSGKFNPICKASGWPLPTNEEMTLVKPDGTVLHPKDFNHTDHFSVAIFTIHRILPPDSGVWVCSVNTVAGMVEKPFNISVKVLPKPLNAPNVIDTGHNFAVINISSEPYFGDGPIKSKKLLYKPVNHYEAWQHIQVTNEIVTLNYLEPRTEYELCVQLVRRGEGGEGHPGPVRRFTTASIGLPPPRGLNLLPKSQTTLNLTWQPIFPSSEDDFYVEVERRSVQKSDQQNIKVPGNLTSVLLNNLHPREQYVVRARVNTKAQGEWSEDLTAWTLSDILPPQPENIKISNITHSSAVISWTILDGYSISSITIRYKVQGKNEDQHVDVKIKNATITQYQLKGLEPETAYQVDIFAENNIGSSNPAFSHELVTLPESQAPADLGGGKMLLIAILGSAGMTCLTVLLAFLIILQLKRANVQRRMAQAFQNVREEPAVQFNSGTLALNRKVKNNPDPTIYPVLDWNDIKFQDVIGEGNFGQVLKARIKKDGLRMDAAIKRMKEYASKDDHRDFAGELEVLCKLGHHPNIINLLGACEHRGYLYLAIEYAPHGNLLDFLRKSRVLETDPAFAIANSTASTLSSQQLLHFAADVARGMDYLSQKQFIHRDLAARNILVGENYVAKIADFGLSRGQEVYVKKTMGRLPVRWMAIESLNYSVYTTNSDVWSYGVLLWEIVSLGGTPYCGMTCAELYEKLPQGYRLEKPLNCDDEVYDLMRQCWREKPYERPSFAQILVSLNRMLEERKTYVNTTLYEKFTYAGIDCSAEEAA

SMILES | IC50 [µM]
O=C(Cc1cccc2ccccc12)N(CCn1nc(-c2ccncc2)nc1-c1ccc2c(c1)OCO2)C1CCCC1 [Entry 63, N-{2-[5-(1,3-benzodioxol-5-yl)-3-pyridin-4-yl-1H-1,2,4-triazol-1-yl]ethyl}-N-cyclopentyl-2-naphthalen-1-ylacetamide] | < 0.05
Cc1ccc(-c2nc(-c3ccncc3)n(CCN(C(=O)Cc3cccc4ccccc34)C3CCCC3)n2)cc1 [Entry 71, N-cyclopentyl-N-{2-[3-(4-methylphenyl)-5-pyridin-4-yl-1H-1,2,4-triazol-1-yl]ethyl}-2-naphthalen-1-ylacetamide] | 1 to 10
Cc1cccc(-c2nc(-c3ccncc3)nn2CCN(C(=O)Cc2cccc3ccccc23)C2CCCC2)c1 [Entry 72, N-cyclopentyl-N-{2-[5-(3-methylphenyl)-3-pyridin-4-yl-1H-1,2,4-triazol-1-yl]ethyl}-2-naphthalen-1-ylacetamide] | < 0.05
Cc1cccc(-c2nc(-c3ccncc3)n(CCN(C(=O)Cc3cccc4ccccc34)C3CCCC3)n2)c1 [Entry 73, N-cyclopentyl-N-{2-[3-(3-methylphenyl)-5-pyridin-4-yl-1H-1,2,4-triazol-1-yl]ethyl}-2-naphthalen-1-ylacetamide] | 1 to 10
O=C(Cc1cccc2ccccc12)N(CCn1nc(-c2ccncc2)nc1-c1ccc(Cl)cc1Cl)C1CCCC1 [Entry 74, N-cyclopentyl-N-{2-[5-(2,4-dichlorophenyl)-3-pyridin-4-yl-1H-1,2,4-triazol-1-yl]ethyl}-2-naphthalen-1-ylacetamide] | < 0.05
O=C(Cc1cccc2ccccc12)N(CCn1nc(-c2ccncc2)nc1-c1ccc(C(F)(F)F)cc1)C1CCCC1 [Entry 76, N-cyclopentyl-2-naphthalen-1-yl-N-(2-{3-pyridin-4-yl-5-[4-(trifluoromethyl)phenyl]-1H-1,2,4-triazol-1-yl}ethyl)acetamide] | < 0.05
O=C(Cc1cccc2ccccc12)N(CCn1nc(-c2ccc(C(F)(F)F)cc2)nc1-c1ccncc1)C1CCCC1 [Entry 77, N-cyclopentyl-2-naphthalen-1-yl-N-(2-{5-pyridin-4-yl-3-[4-(trifluoromethyl)phenyl]-1H-1,2,4-triazol-1-yl}ethyl)acetamide] | ≥ 10
COc1ccc(-c2nc(-c3ccncc3)nn2CCN(C(=O)Cc2cccc3ccccc23)C2CC2)cc1Cl [Entry 78, N-(2-{5-[3-chloro-4-(methyloxy)phenyl]-3-pyridin-4-yl-1H-1,2,4-triazol-1-yl}ethyl)-N-cyclopropyl-2-naphthalen-1-ylacetamide] | < 0.05
COc1ccc(-c2nc(-c3ccncc3)nn2CCN(C(=O)Cc2cccc3ccccc23)C(C)C)cc1Cl [Entry 79, N-(2-{5-[3-chloro-4-(methyloxy)phenyl]-3-pyridin-4-yl-1H-1,2,4-triazol-1-yl}ethyl)-N-(1-methylethyl)-2-naphthalen-1-ylacetamide] | ≥ 10
CCc1nc(-c2ccncc2)nn1CCN(C(=O)Cc1cccc2ccccc12)C1CCCC1 [Entry 80, N-cyclopentyl-N-[2-(5-ethyl-3-pyridin-4-yl-1H-1,2,4-triazol-1-yl)ethyl]-2-naphthalen-1-ylacetamide] | < 0.05
COc1ccc(-c2nc(-c3ccncc3)nn2CCN(C(=O)Nc2ccccc2OC)C2CCCC2)cc1Cl [Entry 84, N-(2-{5-[3-chloro-4-(methyloxy)phenyl]-3-pyridin-4-yl-1H-1,2,4-triazol-1-yl}ethyl)-N-cyclopentyl-N′-[2-(methyloxy)phenyl]urea] | ≥ 10
COc1ccc(NC(=O)N(CCn2nc(-c3ccncc3)nc2-c2ccc(OC)c(Cl)c2)C2CCCC2)c(OC)c1 [Entry 85, N′-[2,4-bis(methyloxy)phenyl]-N-(2-{5-[3-chloro-4-(methyloxy)phenyl]-3-pyridin-4-yl-1H-1,2,4-triazol-1-yl}ethyl)-N-cyclopentylurea] | ≥ 10
CCCCCCNC(=O)N(CCn1nc(-c2ccncc2)nc1-c1ccc(OC)c(Cl)c1)C1CCCC1 [Entry 89, N-(2-{5-[3-chloro-4-(methyloxy)phenyl]-3-pyridin-4-yl-1H-1,2,4-triazol-1-yl}ethyl)-N-cyclopentyl-N′-hexylurea] | ≥ 10
COc1ccc(-c2nc(-c3ccncc3)nn2CCN(C(=O)Nc2ccc(F)cc2)C2CCCC2)cc1Cl [Entry 90, N-(2-{5-[3-chloro-4-(methyloxy)phenyl]-3-pyridin-4-yl-1H-1,2,4-triazol-1-yl}ethyl)-N-cyclopentyl-N′-(4-fluorophenyl)urea] | ≥ 10

Now from value to compound:

IC50 [µM] | SMILES
1 to 10 | O=C(Cc1cccc2ccccc12)N(CCn1nc(-c2ccc3c(c2)OCO3)nc1-c1ccncc1)C1CCCC1 [Entry 64, N-{2-[3-(1,3-benzodioxol-5-yl)-5-pyridin-4-yl-1H-1,2,4-triazol-1-yl]ethyl}-N-cyclopentyl-2-naphthalen-1-ylacetamide]
< 0.05 | O=C(Cc1cccc2ccccc12)N(CCn1nc(-c2ccncc2)nc1-c1cccc(Br)c1)C1CCCC1 [Entry 65, N-{2-[5-(3-bromophenyl)-3-pyridin-4-yl-1H-1,2,4-triazol-1-yl]ethyl}-N-cyclopentyl-2-naphthalen-1-ylacetamide]
≥ 10 | O=C(Cc1cccc2ccccc12)N(CCn1nc(-c2cccc(Br)c2)nc1-c1ccncc1)C1CCCC1 [Entry 66, N-{2-[3-(3-bromophenyl)-5-pyridin-4-yl-1H-1,2,4-triazol-1-yl]ethyl}-N-cyclopentyl-2-naphthalen-1-ylacetamide]
< 0.05 | O=C(Cc1cccc2ccccc12)N(CCn1nc(-c2ccncc2)nc1-c1ccc(Br)cc1)C1CCCC1 [Entry 67, N-{2-[5-(4-bromophenyl)-3-pyridin-4-yl-1H-1,2,4-triazol-1-yl]ethyl}-N-cyclopentyl-2-naphthalen-1-ylacetamide]
< 0.05 | O=C(Cc1cccc2ccccc12)N(CCn1nc(-c2ccc(Br)cc2)nc1-c1ccncc1)C1CCCC1 [Entry 68, N-{2-[3-(4-bromophenyl)-5-pyridin-4-yl-1H-1,2,4-triazol-1-yl]ethyl}-N-cyclopentyl-2-naphthalen-1-ylacetamide]
0.05 to 1 | Cc1nc(-c2ccnnc2)nn1CCN(C(=O)Cc1cccc2ccccc12)C1CCCC1 [Entry 69, N-cyclopentyl-N-[2-(5-methyl-3-pyridazin-4-yl-1H-1,2,4-triazol-1-yl)ethyl]-2-naphthalen-1-ylacetamide]
< 0.05 | Cc1ccc(-c2nc(-c3ccncc3)nn2CCN(C(=O)Cc2cccc3ccccc23)C2CCCC2)cc1 [Entry 70, N-cyclopentyl-N-{2-[5-(4-methylphenyl)-3-pyridin-4-yl-1H-1,2,4-triazol-1-yl]ethyl}-2-naphthalen-1-ylacetamide]
1 to 10 | O=C(Cc1cccc2ccccc12)N(CCn1nc(-c2ccc(Cl)cc2Cl)nc1-c1ccncc1)C1CCCC1 [Entry 75, N-cyclopentyl-N-{2-[3-(2,4-dichlorophenyl)-5-pyridin-4-yl-1H-1,2,4-triazol-1-yl]ethyl}-2-naphthalen-1-ylacetamide]
≥ 10 | COc1ccc(-c2nc(-c3ccncc3)nn2CCN(C(=O)Cc2cccc3ccccc23)C2CCN(C)CC2)cc1Cl [Entry 81, N-(2-{5-[3-chloro-4-(methyloxy)phenyl]-3-pyridin-4-yl-1H-1,2,4-triazol-1-yl}ethyl)-N-(1-methylpiperidin-4-yl)-2-naphthalen-1-ylacetamide]
1 to 10 | COc1ccc(-c2nc(-c3ccncc3)nn2CCN(C(=O)N[C@@H]2C[C@H]2c2ccccc2)C2CCCC2)cc1Cl [Entry 82, N-(2-{5-[3-chloro-4-(methyloxy)phenyl]-3-pyridin-4-yl-1H-1,2,4-triazol-1-yl}ethyl)-N-cyclopentyl-N′-[(1R,2S)-2-phenylcyclopropyl]urea]
≥ 10 | COc1ccc(-c2nc(-c3ccncc3)nn2CCN(C(=O)Nc2ccc(Cl)cc2Cl)C2CCCC2)cc1Cl [Entry 83, N-(2-{5-[3-chloro-4-(methyloxy)phenyl]-3-pyridin-4-yl-1H-1,2,4-triazol-1-yl}ethyl)-N-cyclopentyl-N′-(2,4-dichlorophenyl)urea]
1 to 10 | COc1ccc(-c2nc(-c3ccncc3)nn2CCN(C(=O)Nc2ccccc2C)C2CCCC2)cc1Cl [Entry 86, N-(2-{5-[3-chloro-4-(methyloxy)phenyl]-3-pyridin-4-yl-1H-1,2,4-triazol-1-yl}ethyl)-N-cyclopentyl-N′-(2-methylphenyl)urea]
1 to 10 | CCc1ccccc1NC(=O)N(CCn1nc(-c2ccncc2)nc1-c1ccc(OC)c(Cl)c1)C1CCCC1 [Entry 87, N-(2-{5-[3-chloro-4-(methyloxy)phenyl]-3-pyridin-4-yl-1H-1,2,4-triazol-1-yl}ethyl)-N-cyclopentyl-N′-(2-ethylphenyl)urea]
≥ 10 | COc1ccc(-c2nc(-c3ccncc3)nn2CCN(C(=O)Nc2ccc(Cl)c(Cl)c2)C2CCCC2)cc1Cl [Entry 88, N-(2-{5-[3-chloro-4-(methyloxy)phenyl]-3-pyridin-4-yl-1H-1,2,4-triazol-1-yl}ethyl)-N-cyclopentyl-N′-(3,4-dichlorophenyl)urea]
≥ 10 | COc1ccc(NC(=O)N(CCn2nc(-c3ccncc3)nc2-c2ccc(OC)c(Cl)c2)C2CCCC2)cc1 [Entry 91, N-(2-{5-[3-chloro-4-(methyloxy)phenyl]-3-pyridin-4-yl-1H-1,2,4-triazol-1-yl}ethyl)-N-cyclopentyl-N′-[4-(methyloxy)phenyl]urea]
